Measured values from article PMC8344761 (Journal of Enzyme Inhibition and Medicinal Chemistry, 2021).

How the values were obtained:
A-Raf = molecular target: T1, A-Raf (Homo sapiens, UniProt P10398); test: Raf kinase assay (Kinase HotSpot, Reaction Biology Corp.); type: biochemical; details: fixed concentration 1 μM; mean of two independent experiments
T1 sequence (P10398 1-606): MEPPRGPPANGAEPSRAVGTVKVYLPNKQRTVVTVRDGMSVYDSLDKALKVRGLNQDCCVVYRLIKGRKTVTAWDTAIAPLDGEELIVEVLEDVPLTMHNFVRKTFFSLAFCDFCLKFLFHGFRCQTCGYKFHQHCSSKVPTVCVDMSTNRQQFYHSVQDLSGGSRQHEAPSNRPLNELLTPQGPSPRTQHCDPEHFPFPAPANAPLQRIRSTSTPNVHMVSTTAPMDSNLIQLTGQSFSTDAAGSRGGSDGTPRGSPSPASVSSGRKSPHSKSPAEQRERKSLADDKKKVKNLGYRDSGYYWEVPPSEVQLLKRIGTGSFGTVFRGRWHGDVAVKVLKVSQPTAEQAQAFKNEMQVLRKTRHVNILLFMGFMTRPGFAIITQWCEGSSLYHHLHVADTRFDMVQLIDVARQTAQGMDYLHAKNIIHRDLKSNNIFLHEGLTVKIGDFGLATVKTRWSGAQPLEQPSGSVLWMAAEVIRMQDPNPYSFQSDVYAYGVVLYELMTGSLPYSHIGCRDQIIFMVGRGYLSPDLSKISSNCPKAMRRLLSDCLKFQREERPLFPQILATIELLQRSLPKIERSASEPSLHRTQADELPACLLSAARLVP
Method: Compounds were delivered into each Raf reaction, followed ∼20 min later by addition of a mixture of ATP and [γ-^33P-ATP] (specific activity approx. 500 cpm/pmol, concentration as required) to a final concentration of 10 µM. […] Then, the reaction was spotted onto a P30 filtermat, and unbound phosphate was removed by washing three times for 5 min in 75 mM phosphoric acid and once in methanol prior to drying and scintillation counting. […] IC50 values and curve fits were obtained using Prism (GraphPad Software, La Jolla, CA).

C-Raf = C-Raf (Homo sapiens, UniProt P04049); test: as above; type: biochemical; details: read-out: Inhibition (%) C-Raf
Sequence of C-Raf (P04049 whole entry): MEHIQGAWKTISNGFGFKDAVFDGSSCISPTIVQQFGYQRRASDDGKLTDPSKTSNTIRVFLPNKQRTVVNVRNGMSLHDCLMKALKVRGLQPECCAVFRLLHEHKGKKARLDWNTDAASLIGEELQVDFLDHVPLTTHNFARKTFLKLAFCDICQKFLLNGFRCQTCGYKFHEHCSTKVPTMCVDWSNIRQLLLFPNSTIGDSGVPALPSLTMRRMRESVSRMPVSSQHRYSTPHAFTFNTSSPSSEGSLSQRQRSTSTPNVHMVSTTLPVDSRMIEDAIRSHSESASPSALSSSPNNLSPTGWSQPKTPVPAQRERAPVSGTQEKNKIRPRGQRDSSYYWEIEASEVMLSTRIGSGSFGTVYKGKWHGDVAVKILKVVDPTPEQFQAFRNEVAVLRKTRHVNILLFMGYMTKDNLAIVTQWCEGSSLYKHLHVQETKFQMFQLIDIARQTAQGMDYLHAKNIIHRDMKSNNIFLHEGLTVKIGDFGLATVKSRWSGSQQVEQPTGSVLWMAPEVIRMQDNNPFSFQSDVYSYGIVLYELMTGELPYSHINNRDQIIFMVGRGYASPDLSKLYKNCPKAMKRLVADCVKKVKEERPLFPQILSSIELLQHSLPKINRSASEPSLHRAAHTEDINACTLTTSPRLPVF
Method: Compounds were delivered into each Raf reaction, followed ∼20 min later by addition of a mixture of ATP and [γ-^33P-ATP] (specific activity approx. 500 cpm/pmol, concentration as required) to a final concentration of 10 µM. After incubation for 40 min at 25 °C, the reaction was stopped by the addition of a 3% phosphoric acid solution. Then, the reaction was spotted onto a P30 filtermat, and unbound phosphate was removed by washing three times for 5 min in 75 mM phosphoric acid and once in methanol prior to drying and scintillation counting. […] IC50 values and curve fits were obtained using Prism (GraphPad Software, La Jolla, CA).

Hep3B = test: Cell proliferation assay (MTT); type: cell-based; details: Homo sapiens, 48 h, mean ± SEM of three independent experiments, read-out: Cancer cell proliferation IC50 Hep3B
Method: (§1) Hepatocellular carcinoma cell lines (HepG2, Huh7), human pancreatic ductal epithelial cell line (H6c7), and normal human colon cell line (CCD841) were obtained from the American Type Culture Collection (ATCC) (Manassas, VA, USA). Cells were cultured in DMEM/High Glucose media (Hep3B, Huh7, CCD841) or MEM/EBSS media (HepG2) containing 10% FBS, 100 IU/ml of penicillin and 100 µg/ml of streptomycin. H6c7 cells were cultured in keratinocyte serum free media supplemented with epidermal growth factor and bovine pituitary extract. Cells were maintained in 5% CO2 humidified atmosphere at 37 °C.
(§2) Cells were seeded in a 96-well plate and allowed to adhere for 24 h. The cells were serum starved in 1% serum containing medium for 12 h, and then treated with drugs in 10% serum-containing medium. After incubation for 48 h, cell proliferation was measured using MTT assay. Optical density was measured at 540 nm using a Spectrostar Nano microplate reader (BMG LABTECH GmbH, Ortenberg, Germany).

HepG2 = test: Cell proliferation assay (MTT); type: cell-based; details: Homo sapiens, 48 h, mean ± SEM of three independent experiments, read-out: Cancer cell proliferation IC50 HepG2
Method: as §1, §2

Huh7 = test: Cell proliferation assay (MTT); type: cell-based; details: Homo sapiens, Huh-7, 48 h, mean ± SEM of three independent experiments, read-out: Cancer cell proliferation IC50 Huh7
Method: as §1, §2

[1] = Cytotoxicity assay (MTT), normal cells; type: cell-based, human; details: human, mean ± SEM
Method: as §1
(§3) Cells were seeded in a 96-well plate and allowed to adhere for 24 h. Cells in low serum (1%)-containing medium were treated with drugs for 48 h. In case of H6c7 cells, cells in keratinocyte serum free media were treated with drugs for 48 h. Then, cell viability was measured using MTT assay. Optical density was measured at 540 nm using a Spectrostar Nano microplate reader (BMG LABTECH).

CCD841 = test: Cytotoxicity assay (MTT), normal cells; type: cell-based, human; details: normal colon epithelial cell line, 48 h, mean ± SEM
Method: as §1, §3

H6c7 = test: Cytotoxicity assay (MTT), normal cells; type: cell-based, human; details: normal pancreatic ductal epithelial cell line, 48 h, mean ± SEM
Method: as §1, §3

Hep3B cells = test: Sphere formation assay; type: cell-based; details: Homo sapiens, 48 h drug treatment, 13 days culture, read-out: % Inhibition of sphere forming Hep3B
Method: (§4) Sphere forming ability of Hep3B and Huh7 cells were examined after incubation with drugs for 48 h. Briefly, 3 × 10^3 cells which were pre-treated with or without drugs in prEGM media (Lonza, Basel, Switzerland) were seeded on an ultra-low adhering 24 well plate (Corning Incorporated Costar, Corning, NY). Twice a week, 500 µL of used medium was replaced with fresh prEGM media. At 13 days after plating, images of spheres were captured using Celloger Mini (Curiosis Inc., Seoul, South Korea). The number of spheroids over 50 µm in diameter was counted by using Image J software (National Institute of Health, Bethesda, MD).

Huh7 cells = test: Sphere formation assay; type: cell-based; details: Homo sapiens, Huh-7, 48 h drug treatment, 13 days culture, read-out: % Inhibition of sphere forming Huh7
Method: as §4

[2] = system: Huh7 cells xenografted onto CAM; test: Huh7-xenografted CAM tumour model; type: in vivo, chick; details: 10 µM final concentration on CAM; Huh7 xenograft
Method: Cancer cell xenograft onto chick chorioallantoic membrane (CAM), an in vivo tumour model, was used to evaluate anti-tumour efficacy of compounds. Fertilised chicken eggs purchased from Byeolbichon Farm (Gyeongbuk, South Korea) were incubated at 37 °C with 55% relative humidity. On day 9 of egg incubation (embryonic day 9, E9), a small hole was made in the shell over the air sac after the selection of bifurcated vessels. Another hole was made on the broadside using a needle by applying negative pressure from the wider part, creating false air sac. Using a grinding wheel (Dremel, Racine, WI), a small window (1 cm^2) was created in the eggshell above the false air sac. For generation of xenograft CAM tumour model, Huh7 cells (1.5 × 10^6 cells/CAM) were inoculated on the CAM with or without test drugs (10 µM final concentration). On day 13 of egg incubation (E13), tumour tissues attached to CAM were resected from the embryo and harvested. Photographs of tumour as well as blood vessel branches were taken using optical microscope (Olympus Corporation, Tokyo, Japan). Tumour tissues were weighted and the number of vessel branch points within the tumour region was counted.

CNC(=O)c1cc(Oc2ccc(NC(=O)Nc3ccc(Cl)c(C(F)(F)F)c3)cc2)ccn1 [Sorafenib, reference compound]
inhibition at 1 µM (A-Raf): 93.7% | inhibition at 1 µM (C-Raf): 97.6% | IC50 (Hep3B): 1.22 ± 0.05 µM | IC50 (HepG2): 1.29 ± 0.02 µM | IC50 (Huh7): 1.17 ± 0.04 µM | CC50 at 48 h ([1]; CCD841 cells (normal colon epithelial cell line)): ~4.1 µM | CC50 at 48 h ([1]; H6c7 cells (normal pancreatic ductal epithelial cell line)): ~4.4 µM | CC50 (CCD841): 4.08 ± 0.58 µM | CC50 (H6c7): 4.36 ± 0.21 µM | inhibition at 1 µM (Hep3B cells; 1 μM): 43.6% | inhibition at 10 µM (Hep3B cells; 10 μM): 56.4% | inhibition at 1 µM (Huh7 cells; 1 μM): 59.7% | inhibition at 10 µM (Huh7 cells; 10 μM): 85.9% | inhibition of tumour-induced angiogenesis (new vessel branches) [2]: significantly blocked
